The values below come from article PMC3388080 (PLoS ONE, 2012).

A short description of data set [1]: Plasma and brain exposure at the end of the LMA experiment. The class given is in vivo, rat. The settings on record: 35 min. The protocol:
Locomotor activity (LMA) was evaluated at F. Hoffmann-La Roche as described previously. Male Wistar rats were placed for 2 weeks in a 12 h light/12 h dark cycle with light onset at 22∶00 (ZT0). […] Spontaneous LMA was recorded for a period of 30 min. At the end of the experiment, the brain and plasma were collected for determination of the drug exposure and brain/plasma concentration ratio.
The plasma and brain exposure of SB-334867 were measured at the end of the LMA experiment.

Data set [2] deals with panel of 79 target receptors. Kind of data set: CEREP selectivity screen, panel of 79 target receptors. The class given is binding. Particulars: 10 µM; all targets except A2A, A3, MT3, P2Y, 5HT2C. The protocol: (§1) SB-334867 was evaluated in a selectivity screen performed at CEREP (Paris, France). The screen consisted of binding assays on a panel of 79 target receptors. The specific binding (SB) of a radioligand to each target receptor was defined as the difference between the total binding and the nonspecific binding determined in the presence of a cold competitor in excess. […] Details on the CEREP screen are available from www.cerep.fr.
Among the 79 receptors tested, 30 were peptide receptors. […] The selectivity profiles of almorexant and EMPA [37] have been reported previously.

The target in data set [3] is T1, TRH1 (h) (antagonist effect) (Homo sapiens, UniProt P34981).
T1 construct: purchased CEREP
T1 sequence (P34981 whole entry): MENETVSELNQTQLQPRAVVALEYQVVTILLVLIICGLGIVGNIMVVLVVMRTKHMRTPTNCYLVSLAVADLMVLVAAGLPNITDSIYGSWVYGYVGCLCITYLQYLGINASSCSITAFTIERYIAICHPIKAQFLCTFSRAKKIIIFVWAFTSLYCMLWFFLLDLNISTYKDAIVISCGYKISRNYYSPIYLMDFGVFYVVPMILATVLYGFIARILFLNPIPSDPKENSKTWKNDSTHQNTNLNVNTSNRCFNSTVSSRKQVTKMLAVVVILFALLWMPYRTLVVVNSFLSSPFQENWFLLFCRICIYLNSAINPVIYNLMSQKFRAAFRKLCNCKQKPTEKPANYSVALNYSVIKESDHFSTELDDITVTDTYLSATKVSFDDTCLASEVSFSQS
Kind of data set: CEREP screen, antagonist effect. The class given is biochemical. The settings on record: % of control. The protocol:
as §1

The target in a further data set is T2, rHCRTR1 (Rattus norvegicus, UniProt P56718).
T2 construct: expressed in transfected cells; host or cells: HEK293 (transient transfection, pCI-Neo vector), membrane preparation
T2 sequence (P56718 1-416): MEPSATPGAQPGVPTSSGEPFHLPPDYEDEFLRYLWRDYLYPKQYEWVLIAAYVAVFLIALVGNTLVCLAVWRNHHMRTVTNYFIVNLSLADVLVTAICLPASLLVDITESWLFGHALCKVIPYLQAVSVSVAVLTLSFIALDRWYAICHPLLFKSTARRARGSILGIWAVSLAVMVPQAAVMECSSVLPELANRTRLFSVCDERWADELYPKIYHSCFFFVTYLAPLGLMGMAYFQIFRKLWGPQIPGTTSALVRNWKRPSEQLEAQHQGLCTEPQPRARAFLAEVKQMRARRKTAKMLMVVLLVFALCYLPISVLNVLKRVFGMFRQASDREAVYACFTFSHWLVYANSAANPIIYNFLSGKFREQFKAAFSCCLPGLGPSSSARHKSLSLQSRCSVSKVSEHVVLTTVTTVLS
Kind of data set: Inhibition of [^3H]almorexant binding to HEK293-rHCRTR1 membranes. From the text:
The rat cDNAs encoding HCRTR1 (Accession No. P56718) and HCRTR2 (Accession No. P56719) were subcloned into pCI-Neo expression vectors (Promega, Madison, WI) and used to transfect HEK293 cells (acquired commercially from ATCC-LGC, Molsheim, France) as previously described.

The target in a further data set is T3, HCRTR2 (Rattus norvegicus, UniProt P56719).
T3 construct: from tissue; host or cells: coronal brain sections of male Sprague-Dawley rats (TMN, DRN, CC, CA3, RSC, Pn)
T3 sequence (P56719 1-460): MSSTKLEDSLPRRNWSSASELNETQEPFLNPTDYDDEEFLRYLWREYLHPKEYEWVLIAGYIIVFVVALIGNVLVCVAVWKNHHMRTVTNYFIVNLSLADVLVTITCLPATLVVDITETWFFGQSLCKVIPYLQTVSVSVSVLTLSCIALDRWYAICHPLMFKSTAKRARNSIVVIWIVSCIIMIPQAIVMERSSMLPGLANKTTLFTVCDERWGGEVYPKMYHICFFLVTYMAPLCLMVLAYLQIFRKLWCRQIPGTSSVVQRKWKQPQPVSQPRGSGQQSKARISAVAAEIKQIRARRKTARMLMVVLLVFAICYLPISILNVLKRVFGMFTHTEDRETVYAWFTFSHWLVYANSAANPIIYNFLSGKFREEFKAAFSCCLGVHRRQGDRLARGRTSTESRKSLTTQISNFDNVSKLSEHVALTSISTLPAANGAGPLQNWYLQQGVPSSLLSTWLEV
Kind of data set: HCRTR2 occupancy, [^3H]EMPA autoradiography of brain sections. The settings on record: 30 mg/kg ip; for receptor occupancy at 30 mg/kg: rat, ip, 12 h. The class given is in vivo.

A further data set can be described thus: in vivo. Particulars: male, Sprague-Dawley, rat. The protocol:
This study was performed at F. Hoffmann-La Roche. Sixty-five male Sprague-Dawley rats, housed 5 per cage (light onset: 12∶00), were injected intraperitoneally (ip) with either vehicle (1.25% hydroxypropyl methylcellulose (HPMC), 0.1% docusate sodium) or almorexant (30 mg/kg in 1.25% HPMC, 0.1% docusate sodium) at the mid-dark phase (ZT18; i.e., 6 h after lights-off), and returned to their home cage. Groups (n = 5 per group) of vehicle- or almorexant-treated animals were then sacrificed by decapitation 0.5, 2, 4, 8 or 12 h after the injection. An extra group of non-injected rats (n = 5) was also sampled at ZT18. Plasma was collected and stored at −80°C until assayed. Brains were rapidly dissected, frozen on dry ice, and stored at −80°C. Series of coronal brain sections (14 µm) were cut in a cryostat through the posterior hypothalamus (tuberomammillary nucleus level: 3.8 to 4.2 mm posterior to bregma) and the brain stem (dorsal raphe nucleus level: 7.3 to 8 mm posterior to bregma; locus coeruleus level: −9.3 to −10 mm posterior to bregma), thaw-mounted (6 sections per slide) and stored at −20°C. After sectioning, the remaining pieces of brain were kept at −80°C for later determination of almorexant brain concentration. The brain and plasma concentrations of almorexant were determined by quantitative liquid chromatography/mass spectrometry/mass spectrometry (LC/MS/MS).

The target in another data set is hHCRTR1. Further details: method as in PMID 9821961. The settings on record: 37°C; cited from earlier work.

On to `Cc1nc2ccc(NC(=O)Nc3ccnc4cccnc34)cc2o1.Cl` [SB-334867, 1-(2-methylbenzoxazol-6-yl)-3-[1], [5]naphthyridin-4-yl-urea hydrochloride], for which the results for the brain level in data set [1] (3 mg/kg ip), in data set [1] (10 mg/kg ip) and in data set [1] (30 mg/kg ip) were 48 ng/mL, 171 ng/mL and 142 ng/mL, respectively. The plasma level in data set [1] (3 mg/kg ip) is reported as 220 ng/mL; in data set [1] (10 mg/kg ip), 718 ng/mL; in data set [1] (30 mg/kg ip), 738 ng/mL. Moreover, the “activity at all other targets tested” value in data set [2] is reported as below 40%. The “% Control (10 µM) Mean SB” value in data set [3] is reported as 78.5%.

For orientation: Ki means the dissociation constant of the complex between target and ligand, obtained from inhibition or displacement. Take `CNC(=O)[C@@H](c1ccccc1)N1CCc2cc(OC)c(OC)cc2[C@@H]1CCc1ccc(C(F)(F)F)cc1` [almorexant, (2R)-2-[(1S)-6,7-Dimethoxy-1-[2-(4-trifluoromethyl-phenyl)-ethyl]-3,4-dihydro-1H-isoquinolin-2-yl]-N-methyl-2-phenyl-acetamide]: the figures for the Ki on rHCRTR1 and at hHCRTR1 were 7.1 ± 0.7 nM and 4.7 nM, respectively. At HCRTR2 (all 6 structures, within 30 min, maximal at 2 h and 4 h), the “HCRTR2 RO” value is given as around 100%. Besides, the receptor occupancy at 30 mg/kg worked out at 58.4 ± 11.5% on HCRTR2 (CA3); 66.1 ± 11.6% on HCRTR2 (CC); 57.7 ± 10.5% at HCRTR2 (DRN); 67.2 ± 13.9% at HCRTR2 (Pn); 64.6 ± 10.7% at HCRTR2 (RSC); 49.2 ± 13.2% on HCRTR2 (TMN). Moreover, the “time at which half-maximal concentrations were achieved” value in the data set “in vivo” is 4 and 6. For the same molecule, the Kp at 0.5 h in “in vivo” (ip, 30 mg/kg) was 0.28.
